As usually defined, the CC50 is the concentration giving 50% cytotoxicity. Usually pIC50 stands for the negative decadic logarithm of the IC50, by convention in mol/L. By pEC50 is commonly meant the EC50 on a negative log10 scale, so that one unit is a factor of ten.

Here are results for 13 compounds from ChEMBL document CHEMBL6182833, “Design, synthesis and antiviral evaluation of triazole-linked 7-hydroxycoumarin-monoterpene conjugates as inhibitors of RSV replication” (RSC Med Chem, 2025).

In one series the test system is HEp-2. Kind of series: Cytotoxicity against human HEp-2 cells assessed as cell growth inhibition measured after 24 hrs by MTT assay. Type of series: functional.
The nature of series [1]: Selectivity index, ratio of CC50 for human HEp-2 cells to IC50 for Respiratory syncytial virus type B infected in human HEp-2 cells. Type of series: cell-based. To be noted: read-out: Ratio CC50/IC50.
Series [2] is described as follows: Selectivity index, ratio of CC50 for human HEp-2 cells to IC50 for Respiratory syncytial virus type A infected in human HEp-2 cells. Type of series: cell-based. To be noted: read-out: Ratio CC50/IC50.
Series [3] deals with Human orthopneumovirus. The series can be described thus: Antiviral activity against Respiratory syncytial virus type B infected in human HEp-2 cells assessed as inhibition of viral replication preincubated with cells followed by viral infection for 1 hr followed by virus washout and further incubated with compound for 6 days by ELISA method. Type of series: functional, organism-based. To be noted: for pIC50: read-out: IC50; for IC50: read-out: pIC50 (converted).

Series [4] relates to Human orthopneumovirus. The series can be described thus: Antiviral activity against Respiratory syncytial virus type A infected in human HEp-2 cells assessed as inhibition of viral replication preincubated with cells followed by viral infection for 1 hr followed by virus washout and further incubated with compound for 6 days by ELISA method. Type of series: functional, organism-based. The settings on record: for pIC50: read-out: IC50; for IC50: read-out: pIC50 (converted). In general terms: ELISA stands for enzyme-linked immunosorbent assay.

Each structure is given as a SMILES string. pEC50, pIC50: −log10 of the molar value.

As to `CC1(C)[C@H]2CC=C(Cn3cc(COc4ccc5c6c(c(=O)oc5c4)CCC6)nn3)[C@@H]1C2`, in the series on HEp-2, the CC50 worked out at 278 µM. For the same compound, the selectivity ratio in series [1] amounted to 1.1; in series [2] it was 0.4. For the same compound, the pIC50 in the series with Human orthopneumovirus [3] was 3.59; in the series with Human orthopneumovirus [4] it was 3.20.

Consider `CC(C)=CCC/C(C)=C\Cn1cc(COc2ccc3c(C)cc(=O)oc3c2)nn1`, for which, in the series with HEp-2, the CC50 amounted to 14.7 µM. The results for the selectivity ratio in series [1] and in series [2] were 13.4 and above 96, respectively. Moreover, the pIC50 in the series on Human orthopneumovirus [3] was 5.96; in the series with Human orthopneumovirus [4] it was above 6.70. The IC50 in the series on Human orthopneumovirus [3] is 1.1 µM; in the series on Human orthopneumovirus [4] it was 0.151 µM.

Turning to `CC(C)=CCC/C(C)=C/CCOc1ccc2c3c(c(=O)oc2c1)CCCC3`, the CC50 in the series on HEp-2 was 51.1 µM. In addition, the selectivity ratio stood at 85.2 in series [1] and 90 in series [2]. Also, the pIC50 in the series with Human orthopneumovirus [3] is 6.22; in the series on Human orthopneumovirus [4], 6.24.

Regarding `CC1(C)[C@H]2CC=C(COc3ccc4c5c(c(=O)oc4c3)CCC5)[C@@H]1C2`, the CC50 with HEp-2 was determined as 13.4 µM. The selectivity ratio in series [1] was 0.9; in series [2], below 1. The negative logarithm of the EC50 (pEC50) in the series with Human orthopneumovirus [3] is below 4.89. Moreover, in the series on Human orthopneumovirus [4], the pIC50 is below 4.89.

Turning to `Cc1cc(=O)oc2cc(OCc3cn(Cc4ccc(C(C)C)cc4)nn3)ccc12`, the CC50 in the series on HEp-2 is 20 µM. Also, the selectivity ratio came to 6.3 in series [1] and 9 in series [2]. The results for the pIC50 with Human orthopneumovirus [3] and in the series on Human orthopneumovirus [4] were 5.49 and 5.66, respectively.

In the case of `CC(C)c1ccc(Cn2cc(COc3ccc4c(-c5ccccc5)cc(=O)oc4c3)nn2)cc1`, in the series with HEp-2, the CC50 was found to be 85.7 µM. Moreover, the figures for the selectivity ratio in series [1] and in series [2] were 12.9 and 17, respectively. The pIC50 is 5.18 in the series on Human orthopneumovirus [3] and 5.31 in the series with Human orthopneumovirus [4].

Take `CC1(C)[C@H]2CC=C(COc3ccc4c5c(c(=O)oc4c3)CCCC5)[C@@H]1C2`: the CC50 in the series on HEp-2 came out at 334 µM. Besides, the selectivity ratio in series [1] stood at 5.5; in series [2], 3.5. In addition, the negative-log IC50 (pIC50) was 4.22 with Human orthopneumovirus [3] and 3.97 in the series on Human orthopneumovirus [4].

For `Cc1cc(=O)oc2cc(OCC3=CC[C@@H]4C[C@H]3C4(C)C)ccc12`, the CC50 with HEp-2 is 116 µM. Besides, the figures for the selectivity ratio in series [1] and in series [2] were 24.7 and 90, respectively. Further, the pIC50 in the series on Human orthopneumovirus [3] is 5.33; with Human orthopneumovirus [4] it was 5.89.

For `Cc1cc(=O)oc2cc(OCc3cn(CC4=CC[C@@H]5C[C@H]4C5(C)C)nn3)ccc12`, the CC50 in the series with HEp-2 is 22.2 µM. The selectivity ratio in series [1] is 2.9; in series [2], 3.3. Also, the pIC50 in the series on Human orthopneumovirus [3] is 5.12; with Human orthopneumovirus [4], 5.18.

As to `CC1(C)[C@@H]2CC=C(Cn3cc(COc4ccc5c(-c6ccccc6)cc(=O)oc5c4)nn3)[C@H]1C2`, in the series on HEp-2, the CC50 worked out at 43.4 µM. Further, the figures for the selectivity ratio in series [1] and in series [2] were 6.8 and 10, respectively. The pIC50 with Human orthopneumovirus [3] was 5.20; in the series with Human orthopneumovirus [4] it was 5.38.

As for `CC(C)=CCCC(C)=CCn1cc(COc2ccc3c(-c4ccccc4)cc(=O)oc3c2)nn1`, in the series with HEp-2, the CC50 was 12.3 µM. The selectivity ratio in series [1] came out at 1.1; in series [2], 37. Also, the pIC50 is 4.95 with Human orthopneumovirus [3] and 6.52 in the series on Human orthopneumovirus [4]. Also, the IC50 is 11.2 µM in the series on Human orthopneumovirus [3] and 5.75 µM in the series on Human orthopneumovirus [4].

Take `CC1(C)[C@@H]2CC=C(COc3ccc4c5c(c(=O)oc4c3)CCCC5)[C@H]1C2`: the CC50 with HEp-2 was 380 µM. For the same compound, the selectivity ratio was 78.2 in series [1] and 77 in series [2]. Besides, the pIC50 is 5.31 in the series with Human orthopneumovirus [3] and 5.29 in the series with Human orthopneumovirus [4]. Besides, the IC50 with Human orthopneumovirus [4] was 6.17 µM.

Turning to `NC(=O)c1ncn([C@@H]2O[C@H](CO)[C@@H](O)[C@H]2O)n1` [RIBAVIRIN], the CC50 with HEp-2 is above 4100 µM. Besides, the pIC50 is 4.26 in the series on Human orthopneumovirus [3] and 4.51 with Human orthopneumovirus [4].
